From patent US8232315B2, “Methods for treating drug addiction and improving addiction-related behavior” (SK Biopharmaceuticals Co., Ltd., priority 2009, dated 2012)
“Also recorded” adds a separate entry of the source. Read-outs that look alike come from different tables or passages of the source.

What was measured:
[1] = system: rhesus monkeys trained to self-administer cocaine; assay: Cocaine self-administration, dose-ranging studies with peak unit dose of i.v. cocaine and food components; format: in vivo, rhesus monkeys (Macaca mulatta)
Experimental: (§1) The test compound (O-carbamoyl-(D)-phenylalaminol) was tested for the effects on cocaine self-administration in rhesus monkeys. Rhesus monkeys were trained to self-administer cocaine (0.032 mg/kg/inj, i.v.) and 1 g banana-flavored food pellets during 2-hr experimental sessions in the Rapid Assessment Procedure. Each session consisted of four 20-min components of drug availability (100-min), each separated by a 5-min timeout period. The four components of drug availability were preceded and followed by […] components of food availability. During training, unit doses of cocaine were varied across components of the session (0.001-0.03 or 0.01-0.32 mg/kg/inj) to provide full dose effect curves for cocaine self-administration. The position and slope of the dose-effect curve varied among monkeys and, generally, was represented by an inverted-U shape function characteristic for cocaine self-administration under fixed-ratio schedules. In some sessions, the unit dose of cocaine at the peak of the dose-effect curve for i.v. self-administration (0.0032 or 0.032 mg/kg/inj) was kept constant across components of the session. After baseline cocaine dose-effect curves and the effects of peak dose availability throughout the session were stable, experiments with test compound were begun.
Two types of cocaine self-administration experiments were conducted to evaluate pretreatment with test compound: (1) test compound dose-ranging studies and (2) effects of a single dose of test compound on cocaine dose-effect curves. In initial dose-ranging experiments, test compound was studied in individual monkeys by administering i.m. doses of 10-32 mg/kg 30-min before the session.
(§2) Subjects. Five male rhesus monkeys (Macaca mulatta), 89B013, 96D155, 97D105, RQ22 15, and 93N082, were trained to respond for the delivery of 1-g banana pellets under a program of gradually increasing values of a fixed-ratio (FR) schedule until performance was maintained under the terminal FR 30 response schedule. Then, a double-lumen intravenous catheter was surgically implanted under aseptic-conditions in each monkey. Subsequently, monkeys were trained to respond for cocaine (see below). All monkeys were maintained under identical housing conditions as specified under contract DA-7-8073. Individual monkeys had visual, auditory, and olfactory contact with other monkeys, and several types of enrichment devices were provided in the home chamber.
(§3) Apparatus. All experimental equipment was identical to that used in our previously described drug self-administration studies. Briefly, each monkey was housed individually in a well-ventilated stainless steel chamber (64×64×79 cm). The home cages of all monkeys were modified to include an operant panel (28×28 cm) mounted on the front wall and fitted with response keys that could be trans-illuminated by red or green stimulus lights (LEDs). The operant panel also supported an externally-mounted pellet dispenser (Gerbrands, Model G5210) that delivered 1 gm fruit-flavored food pellets (P. J. Noyes Co., Lancaster, N.H.) to a food receptacle mounted on the cage beneath the operant response panel. Two syringe pumps (Model B5P-IE, Braintree Scientific, Braintree, Mass.; or Model 980210, Harvard Apparatus, South Natick, Mass.) were mounted above each cage for delivery of saline or drug solutions through the double-lumen intravenous catheters. Operation of the operant panels and data collection were accomplished with an LBM-compatible computer supplied by Med Associates, Inc., and located in an adjacent room. The experimental control hardware was supplied by Med Associates, Inc., and was controlled by customized-software written in MedState Notation.
(§4) Test sessions. A diagram of the Rapid Assessment Procedure is shown in the drawing. Test sessions occurred twice daily beginning at 11 a.m. and 3 p.m. […]

[2] = system: rats trained to discriminate cocaine (10 mg/kg) from saline; assay: Substitution for the discriminative stimulus effects of cocaine in rats (two-lever drug discrimination); format: in vivo, Sprague-Dawley rats; conditions: for ED50: Rattus norvegicus, linear regression against log10 doses from 10 to 100 mg/kg
Experimental: Test compound was tested for its ability to substitute for the discriminative stimulus effects of cocaine (10 mg/kg) in rats.
Six male Sprague-Dawley rats were trained to discriminate cocaine (10 mg/kg) from saline using a two-lever choice methodology. Food was available as a reinforcer under a fixed ratio 10 schedule when responding occurred on the injection appropriate lever. All tests occurred in standard, commercially available chambers (Coulbourn Instruments), using 45 mg food pellets (Bioserve) as reinforcers.
Training sessions occurred in a double alternating fashion, and tests were conducted between pairs of identical training sessions (i.e., between either two saline or two cocaine training sessions). Tests occurred only if, in the two preceding training sessions, subjects met the criteria of emitting 85% of responses on the injection correct lever for both the first reinforcer (first fixed ratio) and the total session. Test sessions lasted for twenty minutes, or until twenty reinforcers had been obtained. Doses of the test compound for which fewer, than three rats completed the first fixed ratio were not considered in the characterization of discriminative stimulus effects.
Intraperitoneal injections (1 ml/kg) of test compound, or its vehicle (0.9% saline), occurred 60 minutes prior to the start of the test session. A starting dose for test compound of 2.5 mg/kg was determined based upon data supplied by the project officer, and a dose range of 2.5 to 100 mg/kg was examined.

[3] = system: rhesus monkeys trained to self-administer cocaine; assay: Cocaine self-administration, Rapid Assessment (Rapid Dose Effect) Procedure, cocaine dose-effect curve; format: in vivo, rhesus monkeys (Macaca mulatta)
Experimental: as §1
Next, the Rapid Assessment Procedure was used to evaluate the effects of a single i.m. dose of test compound on self-administration of a range of unit doses of cocaine within a single experimental session. […] During rapid assessment studies, food-maintained behavior was disrupted in two monkeys and unaffected in the remaining two monkeys, resulting in a >50% decrease in averaged response rates prior to or following sessions of cocaine self-administration.
as §2, §3, §4

[4] = 32 mg/kg i.m. pretreatment, averaged for the group
[5] = 32 mg/kg i.m., monkeys 96D155, 93N082 and 97D105

In the case of `NC(=O)OC[C@H](N)Cc1ccccc1` [test compound, O-carbamoyl-(D)-phenylalaminol], the “Effect on i.v. cocaine self-administration behavior” value ([1]; 10 mg/kg i.m., any of the four monkeys) is reported as “did not alter”, the “Effect on self-administration of the peak unit dose of i.v. cocaine” value ([1]; 10 mg/kg i.m., averaged for the group) is reported as “did not have consistent effects; also recorded: without appreciable effect” and the “Food-maintained performance, Food 1 and Food 2” value ([1]; 10 mg/kg i.m., monkeys 89B013 and RQ2215) is reported as “unchanged”. For the same molecule, the “Food-maintained responding, Food 2” value ([1]; 10 mg/kg i.m., monkeys 96D155 and 93N082) was “decreased food-maintained responding”, the “Food-maintained behavior, Food 1” value ([1]; 18 mg/kg i.m., any monkey) was “not appreciably affected” and the “Decrease in self-administration of the peak unit dose of i.v. cocaine” value ([1]; 18 mg/kg i.m., monkey 89B013) was “approximately 50%”. The “Food-maintained behavior, Food 2” value ([1]; 18 mg/kg i.m., monkeys 89B013 and 93N082) was “greatly decreased”, the “Food-maintained behavior, Food 2” value ([1]; 18 mg/kg i.m., monkeys 96D155 and RQ2215) was “did not change behavior” and the “Effect on i.v. self-administration behavior” value ([1]; 18 mg/kg i.m., remaining three subjects) was “did not appreciably alter”. The “Decrease in self-administration of the peak unit dose of i.v. cocaine” value ([1]; 32 mg/kg i.m. 30 min before session, averaged for the group of monkeys) was “approximately 50%”, the “Effect on food-maintained behavior” value ([1]; 32 mg/kg i.m. (18 or 32 mg/kg), prior to or following cocaine components) was “without consistently disrupting food-maintained behavior; also recorded: did not consistently alter” and the “Effect on self-administration of the peak unit dose of i.v. cocaine” value ([1]; 32 mg/kg i.m., averaged for the group) was “markedly decreased”. The “Reduction of self-administration of the peak unit dose of i.v. cocaine” value ([1]; 32 mg/kg i.m., each of the three monkeys studied) was ≥ 50%, the “Food-maintained performance, Food 1 and Food 2” value ([1]; 32 mg/kg i.m., monkey 93N082) was “markedly decreased” and the “Food-maintained responding, either food component” value ([1]; 32 mg/kg i.m., monkeys 96D155 and RQ2215) was “did not alter responding”. The “Effect on food-maintained behavior” value ([1]; pretreatment doses 10-32 mg/kg i.m., averaged for the group, dose-ranging studies) was “only inconsistent effects”, the ED50 ([2]; i.p. 60 min before session, read-out: ED50, substitution for the discriminative stimulus effects of 10 mg/kg cocaine, total session) was 37.4 mg/kg and the ED50 ([2]; ip, read-out: ED50, substitution for cocaine, first reinforcer) was 37.5 mg/kg. For the same molecule, the “Substitution for the discriminative stimulus effects of 10 mg/kg cocaine” value ([2]; dose range 2.5 to 100 mg/kg i.p.) was “substituted fully; also recorded: fully substituted”, the “Response rate, % of vehicle control, first reinforcer” value ([2]; following 100 mg/kg i.p.) was 37% and the “Response rate, % of vehicle control, total session” value ([2]; following 100 mg/kg i.p.) was 41%. The “Displacement of the descending portion of the cocaine dose-effect curve” value ([3]; 32 mg/kg i.m.) was “leftward and upward displacement”, the “Effect on responding during availability of saline or low unit doses of i.v. cocaine (0.001-0.01 mg/kg)” value [3, 4] was “either increased or did not change response rates; also recorded: increased responding” and the “Effect on self-administration of higher unit doses of i.v. cocaine (0.032-0.32 mg/kg)” value [3, 4] was “decreased cocaine self-administration behavior”. The “Decrease in food-maintained responding (averaged response rates), Food 1 and Food 2” value ([3]; 32 mg/kg i.m., averaged for the group, rapid assessment) was > 50%, the “Decrease in food-maintained responding, Food 1” value ([3]; 32 mg/kg i.m., monkey RQ2215) was 40% and the “Responding during availability of saline or unit doses of i.v. cocaine 0.001-0.032 mg/kg/injection” value ([3]; 32 mg/kg i.m., monkey RQ2215) was “inconsistently increased”. For the same molecule, the “Responding during availability of unit doses of 0.1 and 0.32 mg/kg cocaine” value ([3]; 32 mg/kg i.m., monkey RQ2215) was “unchanged”, the “Food-maintained responding, Food 1” value ([3]; 32 mg/kg i.m., monkeys 93N082 and 97D105) was “nearly eliminated” and the “Effect on i.v. self-administration during availability of higher unit doses of cocaine” value [3, 5] was “reduced i.v. self-administration behavior”. The “Effect on responding during availability of saline or low unit doses of cocaine (0.001-0.01 mg/kg)” value [3, 5] was “increased responding” and the “Food-maintained responding, Food 2” value [3, 5] was “nearly eliminated”.
